Source: patent US11752138B2 (VANDERBILT UNIVERSITY, priority 2020, dated 2023)

The compounds below were run against Human LDHA (Homo sapiens (Human), UniProt P00338) (assay: human LDHA primary biochemical assay (Example 1)). Details: biochemical LDHA inhibitory activity, assay of Example 1.
From the text: This example describes a human LDHA primary biochemical assay employed in the characterization of a compound of Formula I in an embodiment of the dislcosure.
Test compounds were placed in a Greiner Bio-One (Monroe, N.C.) 1536-well black solid bottom assay plate. 200 millimolar (mM) Tris HCl, pH 7.4, 100 micromolar (μM) EDTA and 0.01% TWEEN-20™, final concentration, was used as the assay buffer. The LDHA reagent was 2 nanomolar (nM) Human LDHA (Meridian Life Science, Inc., Memphis, Tenn.), final concentration, in assay buffer. The substrate reagent was 0.06 mM NADH and 0.2 mM sodium pyruvate, final concentration, in assay buffer. The resazurin/diaphorase coupling reagent was 0.037 mM resazurin and 0.133 milligrams per milliliter (mg/mL) diaphorase, final concentration, in assay buffer. The inhibition of LDHA activity was measured by fluorescence emission. […]

Cc1cc(-c2cc(-c3nn(-c4nc(C(=O)O)cs4)c(CC4CC4)c3Cc3ccc(S(N)(=O)=O)c(F)c3)ccc2F)ccc1F [Compound 195, 2-(5-(cyclopropylmethyl)-3-(4′,6-difluoro-3′-methyl-[1,1′-biphenyl]-3-yl)-4-(3-fluoro-4-sulfamoylbenzyl)-1H-pyrazol-1-yl)thiazole-4-carboxylic acid] and Cc1cc(-c2cc(-c3nn(-c4nc(C(=O)O)cs4)c(CC4CC4)c3Cc3ccc(S(N)(=O)=O)c(F)c3)ccc2F)ccc1C(C)C [Compound 213, 2-[5-(cyclopropylmethyl)-3-[4-fluoro-3-(4-isopropyl-3-methylphenyl)phenyl]-4-[(3-fluoro-4-sulfamoylphenyl)methyl]pyrazol-1-yl]-1,3-thiazole-4-carboxylic acid] cannot be ordered by IC50: under 100 nM for the first, under 100 nM for the second.

NS(=O)(=O)c1ccc(Cc2c(-c3ccc(F)c(C4=CCCO4)c3)nn(-c3nc(C(=O)O)cs3)c2CC2CC2)cc1F [Compound 197, 2-(5-(cyclopropylmethyl)-3-(3-(4,5-dihydrofuran-2-yl)-4-fluorophenyl)-4-(3-fluoro-4-sulfamoylbenzyl)-1H-pyrazol-1-yl)thiazole-4-carboxylic acid] and NS(=O)(=O)c1ccc(Cc2c(-c3ccc(F)c(N4CCCC4=O)c3)nn(-c3nc(C(=O)O)cs3)c2CC2CC2)cc1F [Compound 202, 2-(5-(cyclopropylmethyl)-3-(4-fluoro-3-(2-oxopyrrolidin-1-yl)phenyl)-4-(3-fluoro-4-sulfamoylbenzyl)-1H-pyrazol-1-yl)thiazole-4-carboxylic acid] cannot be ordered by IC50: under 100 nM for the first, under 100 nM for the second.

First: Cc1ccc(-c2cccc(-c3nn(-c4nc(C(=O)O)cs4)c(CC4CC4)c3Cc3ccc(S(N)(=O)=O)c(F)c3)c2)cc1 [Compound 198, 2-(5-(cyclopropylmethyl)-4-(3-fluoro-4-sulfamoylbenzyl)-3-(4′-methyl-[1,1′-biphenyl]-3-yl)-1H-pyrazol-1-yl)thiazole-4-carboxylic acid]
Second: NS(=O)(=O)c1ccc(Cc2c(-c3cccc(-c4ccc(C5CC5)cc4)c3)nn(-c3nc(C(=O)O)cs3)c2CC2CC2)cc1F [Compound 222, 2-(3-(4′-cyclopropyl-[1,1′-biphenyl]-3-yl)-5-(cyclopropylmethyl)-4-(3-fluoro-4-sulfamoylbenzyl)-1H-pyrazol-1-yl)thiazole-4-carboxylic acid]
The IC50 of the first is lower: under 100 nM for the first, 100 to 1000 nM for the second.

N#Cc1cccc(-c2cc(-c3nn(-c4nc(C(=O)O)cs4)c(CC4CC4)c3Cc3ccc(S(N)(=O)=O)c(F)c3)ccc2F)c1 [Compound 200, 2-(3-(3′-cyano-6-fluoro-[1,1′-biphenyl]-3-yl)-5-(cyclopropylmethyl)-4-(3-fluoro-4-sulfamoylbenzyl)-1H-pyrazol-1-yl)thiazole-4-carboxylic acid] and N#Cc1ccc(-c2cc(-c3nn(-c4nc(C(=O)O)cs4)c(CC4CC4)c3Cc3ccc(S(N)(=O)=O)c(F)c3)ccc2F)cc1 [Compound 201, 2-(3-(4′-cyano-6-fluoro-[1,1′-biphenyl]-3-yl)-5-(cyclopropylmethyl)-4-(3-fluoro-4-sulfamoylbenzyl)-1H-pyrazol-1-yl)thiazole-4-carboxylic acid] cannot be ordered by IC50: under 100 nM for the first, under 100 nM for the second.

Cc1ccc(-c2cccc(-c3nn(-c4nc(C(=O)O)cs4)c(CC4CC4)c3Cc3ccc(S(N)(=O)=O)c(F)c3)c2)nc1 [Compound 203, 2-(5-(cyclopropylmethyl)-4-(3-fluoro-4-sulfamoylbenzyl)-3-(3-(5-methylpyridin-2-yl)phenyl)-1H-pyrazol-1-yl)thiazole-4-carboxylic acid] and Cc1ccc(-c2cccc(-c3nn(-c4nc(C(=O)O)cs4)c(CC4CC4)c3Cc3ccc(S(N)(=O)=O)c(F)c3)c2)cn1 [Compound 204, 2-(5-(cyclopropylmethyl)-4-(3-fluoro-4-sulfamoylbenzyl)-3-(3-(6-methylpyridin-3-yl)phenyl)-1H-pyrazol-1-yl)thiazole-4-carboxylic acid] cannot be ordered by IC50: under 100 nM for the first, under 100 nM for the second.

CC(C)c1ccc(-c2cncc(-c3nn(-c4nc(C(=O)O)cs4)c(CC4CC4)c3Cc3ccc(S(N)(=O)=O)c(F)c3)c2)cc1 [Compound 210, 2-[5-(cyclopropylmethyl)-4-[(3-fluoro-4-sulfamoylphenyl)methyl]-3-[5-(4-isopropylphenyl)pyridin-3-yl]pyrazol-1-yl]-1,3-thiazole-4-carboxylic acid] and CC(C)c1cnc(-c2cccc(-c3nn(-c4nc(C(=O)O)cs4)c(CC4CC4)c3Cc3ccc(S(N)(=O)=O)c(F)c3)c2)s1 [Compound 215, 2-[5-(cyclopropylmethyl)-4-[(3-fluoro-4-sulfamoylphenyl)methyl]-3-[3-(5-isopropyl-1,3-thiazol-2-yl)phenyl]pyrazol-1-yl]-1,3-thiazole-4-carboxylic acid] cannot be ordered by IC50: under 100 nM for the first, under 100 nM for the second.

Cc1ncc(-c2cccc(-c3nn(-c4nc(C(=O)O)cs4)c(CC4CC4)c3Cc3ccc(S(N)(=O)=O)c(F)c3)c2)cn1 [Compound 214, 2-[5-(cyclopropylmethyl)-4-[(3-fluoro-4-sulfamoylphenyl)methyl]-3-[3-(2-methylpyrimidin-5-yl)phenyl]pyrazol-1-yl]-1,3-thiazole-4-carboxylic acid] and Cc1cnc(-c2cccc(-c3nn(-c4nc(C(=O)O)cs4)c(CC4CC4)c3Cc3ccc(S(N)(=O)=O)c(F)c3)c2)nc1 [Compound 217, 2-[5-(cyclopropylmethyl)-4-[(3-fluoro-4-sulfamoylphenyl)methyl]-3-[3-(5-methylpyrimidin-2-yl)phenyl]pyrazol-1-yl]-1,3-thiazole-4-carboxylicacid] cannot be ordered by IC50: under 100 nM for the first, under 100 nM for the second.

NS(=O)(=O)c1ccc(Cc2c(-c3cccc(-c4ccc(C(F)(F)F)cc4)c3)nn(-c3nc(C(=O)O)cs3)c2CC2CC2)cc1F [Compound 219, 2-(5-(cyclopropylmethyl)-4-(3-fluoro-4-sulfamoylbenzyl)-3-(4′-(trifluoromethyl)-[1,1′-biphenyl]-3-yl)-1H-pyrazol-1-yl)thiazole-4-carboxylic acid] and NS(=O)(=O)c1ccc(Cc2c(-c3cccc(-c4ccc(O)c(F)c4)c3)nn(-c3nc(C(=O)O)cs3)c2CC2CC2)cc1F [Compound 229, 2-(5-(cyclopropylmethyl)-3-(3′-fluoro-4′-hydroxy-[1,1′-biphenyl]-3-yl)-4-(3-fluoro-4-sulfamoylbenzyl)-1H-pyrazol-1-yl)thiazole-4-carboxylic acid] cannot be ordered by IC50: under 100 nM for the first, under 100 nM for the second.

NS(=O)(=O)c1ccc(Cc2c(-c3cccc(-c4ccc5c(c4)CCC5)c3)nn(-c3nc(C(=O)O)cs3)c2CC2CC2)cc1F [Compound 220, 2-(5-(cyclopropylmethyl)-3-(3-(2,3-dihydro-1H-inden-5-yl)phenyl)-4-(3-fluoro-4-sulfamoylbenzyl)-1H-pyrazol-1-yl)thiazole-4-carboxylic acid] and Cc1cc(-c2cccc(-c3nn(-c4nc(C(=O)O)cs4)c(CC4CC4)c3Cc3ccc(S(N)(=O)=O)c(F)c3)c2)ccc1O [Compound 228, 2-(5-(cyclopropylmethyl)-4-(3-fluoro-4-sulfamoylbenzyl)-3-(4′-hydroxy-3′-methyl-[1,1′-biphenyl]-3-yl)-1H-pyrazol-1-yl)thiazole-4-carboxylic acid] cannot be ordered by IC50: under 100 nM for the first, under 100 nM for the second.

With Cc1ccc(C#Cc2cccc(-c3nn(-c4nc(C(=O)O)cs4)c(CC4CC4)c3Cc3ccc(S(N)(=O)=O)c(F)c3)n2)s1 [Compound 231, 2-(5-(cyclopropylmethyl)-4-(3-fluoro-4-sulfamoylbenzyl)-3-(6-((5-methylthiophen-2-yl)ethynyl)pyridin-2-yl)-1H-pyrazol-1-yl)thiazole-4-carboxylic acid] the IC50 was under 100 nM.
